Assay results reported in patent publication US20130130986A1, “CANCER TREATMENT WITH RECOMBINANT VECTOR” (TOCAGEN INC., priority 2010, published 2013).
No end group written: not given here.

Key:
Tu2449 = test: Thymosin combination therapy in Tu2449/B6C3F1 glioma mouse model, survival; format: in vivo; details: TA1 200 μg/kg IP SID 28 days added to suboptimal Toca511 (E3) and standard BID 5-FC, FIG. 10
Experimental: Experiments using Thymosin Alpha 1 were performed in conjunction with Toca 511 treatment in the Tu2449/B6C3F1 glioma mouse model (U. Pohle et al. Int J Oncol. 15:829-834 (1999); HM. Smilowitz et al. J. Neurosurg 106:652-659 2007). […] Thymosin Alpha 1 was obtained from Sigma Aldrich cat# T3641 and a stock solution made in sterile water at 400 μg/mL. TA1 (200 μg/kg, […]) was given IP starting on day 7 SID for 28 days.

U-87 cells = test: yCD2 versus wild type yCD protein level in infected cells (FIG. 4); format: cell-based, human; details: infected U-87 cells

Molecule	survival rate (Tu2449)	CD protein level (U-87 cells)
thymosin alpha 1 (Ac-SDAAVDTSSEITTKDLKEKKEVVEEAEN; listed as Homo sapiens) [Sigma Aldrich cat# T3641]	increased the survival rate to that of the optimal E5 dosing of Toca 511	
yCD2: human codon optimized yeast cytosine deaminase with substitutions A23L/V108I/I140L (protein, UniProt Q12178 1-158, looked up, variant A23L V108I I140L) Cytosine deaminase: MVTGGMASKWDQKGMDIAYEEALLGYKEGGVPIGGCLINNKDGSVLGRGHNMRFQKGSATLHGEISTLENCGRLEGKVYKDTTLYTTLSPCDMCTGAIIMYGIPRCVIGENVNFKSKGEKYLQTRGHEVVVVDDERCKKLMKQFIDERPQDWFEDIGE		higher levels
